The source made the active and inactive calls.
Key:
Albumin = Albumin (Bos taurus, UniProt P02769); experiment: Counterscreen for inhibitors of T-cell receptor (TCR)-CD3 interaction: Fluorescence-based biochemical high throughput dose response assay to identify inhibitors of T-cell receptor (TCR)-CD3 interaction using a TAMRA-labeled BSA probe.; type: functional
[1] = HepG2 cell cytotoxicity, dose response, cytotoxicity control, plate reader, cherry-pick, antagonist series (AID 743416); type: functional, cell-based
[2] = MC4R antagonists, dose response, counter-screen for LGR2 antagonist project, cell-based, plate reader, cherry pick (AID 743444); type: functional;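 note: transfected HEK 293 cells stimulated with alpha-MSH peptide; potency of inhibitors of the alpha-MSH evoked signal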
[3] = LGR2 antagonists, dose response, cell-based, HEK293, CRE-luciferase reporter, cherry pick, set 2 (AID 743343); type: functional;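 note: transfected cells were stimulated with diluted bursicon conditioned medium after compound addition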
[4] = HEK293 cell cytotoxicity, dose response, cytotoxicity control, plate reader, cherry-picked samples (AID 743446); type: functional, cell-based
[5] = target: T1, DNA repair protein RAD52 homolog (Homo sapiens, UniProt P43351); type: functional, biochemical
T1 sequence (P43351 whole entry): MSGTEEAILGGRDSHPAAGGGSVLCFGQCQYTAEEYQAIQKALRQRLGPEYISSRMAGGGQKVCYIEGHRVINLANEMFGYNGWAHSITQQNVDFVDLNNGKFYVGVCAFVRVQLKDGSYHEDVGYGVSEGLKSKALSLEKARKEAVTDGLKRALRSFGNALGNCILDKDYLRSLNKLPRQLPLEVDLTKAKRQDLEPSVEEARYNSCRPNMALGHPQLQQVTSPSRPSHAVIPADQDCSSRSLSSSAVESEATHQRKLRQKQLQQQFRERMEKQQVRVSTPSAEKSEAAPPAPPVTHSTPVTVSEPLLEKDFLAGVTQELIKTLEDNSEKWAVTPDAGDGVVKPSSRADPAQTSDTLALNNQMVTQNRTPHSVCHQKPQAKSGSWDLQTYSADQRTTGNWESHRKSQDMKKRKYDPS

[6] = Counterscreen for activators of the function of SWI/SNF related, matrix associated, actin dependent regulator of chromatin, subfamily a, member 2 (SMARCA2, BRM): Luminescence-based cell-based high throughput dose response assay to identify non-selective compounds using the VP16 reporter assay.; type: functional
[7] = target: DNA repair and recombination protein RAD54-like (Homo sapiens, UniProt Q92698); experiment: inhibitors of human RAD54 branch migration, confirmation, biochemical, fluorescence, cherry-picked samples, dose series (AID 651657); type: functional
[8] = target: SWI/SNF-related matrix-associated actin-dependent regulator of chromatin subfamily A member 2 (Homo sapiens, UniProt P51531); experiment: Luminescence-based cell-based high throughput dose response assay to identify activators of the function of SWI/SNF related, matrix associated, actin dependent regulator of chromatin, subfamily a, member 2 (SMARCA2, BRM).; type: functional
SWI/SNF-related matrix-associated actin-dependent regulator of chromatin subfamily A member 2, sequence (P51531 whole entry): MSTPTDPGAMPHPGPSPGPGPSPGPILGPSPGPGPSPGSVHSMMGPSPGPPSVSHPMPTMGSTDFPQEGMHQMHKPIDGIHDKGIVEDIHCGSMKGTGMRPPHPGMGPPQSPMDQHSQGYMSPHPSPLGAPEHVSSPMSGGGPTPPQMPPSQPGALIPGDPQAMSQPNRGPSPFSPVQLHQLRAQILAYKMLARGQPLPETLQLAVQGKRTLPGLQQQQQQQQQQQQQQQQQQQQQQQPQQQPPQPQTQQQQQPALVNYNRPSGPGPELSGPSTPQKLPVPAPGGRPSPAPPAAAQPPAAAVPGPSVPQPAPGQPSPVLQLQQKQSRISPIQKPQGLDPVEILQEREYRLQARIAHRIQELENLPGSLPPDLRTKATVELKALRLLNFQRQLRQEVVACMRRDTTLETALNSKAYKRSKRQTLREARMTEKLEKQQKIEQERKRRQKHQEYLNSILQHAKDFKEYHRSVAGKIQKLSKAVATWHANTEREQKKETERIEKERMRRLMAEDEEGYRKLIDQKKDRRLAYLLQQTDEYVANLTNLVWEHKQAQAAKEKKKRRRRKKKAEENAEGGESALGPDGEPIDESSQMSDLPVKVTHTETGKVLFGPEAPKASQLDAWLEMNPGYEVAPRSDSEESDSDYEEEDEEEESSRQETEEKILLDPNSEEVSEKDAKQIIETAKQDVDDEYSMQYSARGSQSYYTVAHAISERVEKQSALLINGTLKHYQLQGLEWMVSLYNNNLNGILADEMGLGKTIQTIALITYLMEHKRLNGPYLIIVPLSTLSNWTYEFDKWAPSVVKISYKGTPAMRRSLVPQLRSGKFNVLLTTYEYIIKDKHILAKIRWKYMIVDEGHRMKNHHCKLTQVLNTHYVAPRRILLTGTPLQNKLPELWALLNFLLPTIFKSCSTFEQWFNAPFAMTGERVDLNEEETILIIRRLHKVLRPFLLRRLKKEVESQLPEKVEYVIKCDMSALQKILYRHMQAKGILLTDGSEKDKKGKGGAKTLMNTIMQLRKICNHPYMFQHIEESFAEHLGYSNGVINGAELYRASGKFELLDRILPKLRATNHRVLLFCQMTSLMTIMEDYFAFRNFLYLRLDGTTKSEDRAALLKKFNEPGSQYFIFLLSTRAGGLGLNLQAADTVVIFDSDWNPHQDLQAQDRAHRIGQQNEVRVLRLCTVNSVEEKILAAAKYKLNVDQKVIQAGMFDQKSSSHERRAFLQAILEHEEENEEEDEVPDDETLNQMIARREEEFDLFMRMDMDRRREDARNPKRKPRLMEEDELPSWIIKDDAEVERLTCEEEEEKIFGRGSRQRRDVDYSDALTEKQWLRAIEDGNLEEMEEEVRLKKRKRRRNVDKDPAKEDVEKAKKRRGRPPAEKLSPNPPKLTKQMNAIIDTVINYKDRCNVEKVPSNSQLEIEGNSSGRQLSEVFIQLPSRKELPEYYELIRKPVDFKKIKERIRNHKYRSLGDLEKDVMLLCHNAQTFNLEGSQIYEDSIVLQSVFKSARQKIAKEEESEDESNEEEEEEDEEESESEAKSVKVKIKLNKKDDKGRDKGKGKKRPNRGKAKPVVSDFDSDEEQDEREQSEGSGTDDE

Cytochrome P450 2C19 = Cytochrome P450 2C19 (Homo sapiens, UniProt P33261); experiment: Cytochrome panel assay with activity outcomes. Panel member name: p450-cyp2c19 Compounds with AC50 equal or less than 10 uM are considered active; type: functional; details: read-out: AC50
[9] = HEK293T cell cytotoxicity, dose response, cytotoxicity control for HIV Vif inhibitor project, cherry-picks (AID 652208); type: functional, cell-based
Cytochrome P450 3A4 = Cytochrome P450 3A4 (Homo sapiens, UniProt P08684);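 note: CYP3A4 tested as one member of a cytochrome P450 panel screen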
[10] = target: T2, Low molecular weight phosphotyrosine protein phosphatase (Homo sapiens, UniProt P24666); type: functional; details: read-out: IC50_Mean
T2 sequence (P24666 whole entry): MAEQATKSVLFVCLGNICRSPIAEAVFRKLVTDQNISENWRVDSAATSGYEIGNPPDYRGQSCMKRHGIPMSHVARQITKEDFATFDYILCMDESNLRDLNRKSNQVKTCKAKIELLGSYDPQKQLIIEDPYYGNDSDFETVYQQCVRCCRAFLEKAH

[11] = target: T2, Low molecular weight phosphotyrosine protein phosphatase; type: functional; details: read-out: IC50_Mean; remark: listed apart in the source
[12] = target: Scavenger receptor class B member 1 (Mus musculus, UniProt Q61009); experiment: inhibitors of SR-BI-mediated HDL uptake, dose response, cell-based, ldlA[mSR-BI] CHO, DiI fluorescence, dry powder, set 10 (AID 624029); type: functional
Steroidogenic factor 1 = Steroidogenic factor 1 (Homo sapiens, UniProt Q13285); experiment: Counterscreen for inverse agonists of the liver receptor homolog-1 (LRH-1; NR5A2): Luminescence-based cell-based high throughput dose response assay to identify inverse agonists of the Steroidogenic Factor 1 Nuclear Receptor (SF1; NR5A1).; type: functional
[13] = target: Nuclear receptor subfamily 5 group A member 2 (Homo sapiens, UniProt O00482); type: functional, cell-based;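 note: HEK293T cells transfected with LRH-1 and a StAR promoter luciferase reporter; potency for inhibitors that lower LRH-1 driven reporter light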
[14] = StAR promoter reporter inhibition counter-screen, dose response, counter-screen for LRH-1 inverse agonist project, cell-based, luminescence, luciferase reporter (AID 651969); type: functional
Fatty acid synthase [15] = target: T3, Fatty acid synthase (Homo sapiens, UniProt P49327); experiment: FAS thioesterase domain inhibitors, dose response, biochemical, kinetic fluorescence intensity (AID 624326); type: functional;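 note: rate of fluorescence rise from hydrolysis of a fluorogenic O-methyl fluorescein ester substrate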
T3 sequence (P49327 whole entry, the tested form may be a part): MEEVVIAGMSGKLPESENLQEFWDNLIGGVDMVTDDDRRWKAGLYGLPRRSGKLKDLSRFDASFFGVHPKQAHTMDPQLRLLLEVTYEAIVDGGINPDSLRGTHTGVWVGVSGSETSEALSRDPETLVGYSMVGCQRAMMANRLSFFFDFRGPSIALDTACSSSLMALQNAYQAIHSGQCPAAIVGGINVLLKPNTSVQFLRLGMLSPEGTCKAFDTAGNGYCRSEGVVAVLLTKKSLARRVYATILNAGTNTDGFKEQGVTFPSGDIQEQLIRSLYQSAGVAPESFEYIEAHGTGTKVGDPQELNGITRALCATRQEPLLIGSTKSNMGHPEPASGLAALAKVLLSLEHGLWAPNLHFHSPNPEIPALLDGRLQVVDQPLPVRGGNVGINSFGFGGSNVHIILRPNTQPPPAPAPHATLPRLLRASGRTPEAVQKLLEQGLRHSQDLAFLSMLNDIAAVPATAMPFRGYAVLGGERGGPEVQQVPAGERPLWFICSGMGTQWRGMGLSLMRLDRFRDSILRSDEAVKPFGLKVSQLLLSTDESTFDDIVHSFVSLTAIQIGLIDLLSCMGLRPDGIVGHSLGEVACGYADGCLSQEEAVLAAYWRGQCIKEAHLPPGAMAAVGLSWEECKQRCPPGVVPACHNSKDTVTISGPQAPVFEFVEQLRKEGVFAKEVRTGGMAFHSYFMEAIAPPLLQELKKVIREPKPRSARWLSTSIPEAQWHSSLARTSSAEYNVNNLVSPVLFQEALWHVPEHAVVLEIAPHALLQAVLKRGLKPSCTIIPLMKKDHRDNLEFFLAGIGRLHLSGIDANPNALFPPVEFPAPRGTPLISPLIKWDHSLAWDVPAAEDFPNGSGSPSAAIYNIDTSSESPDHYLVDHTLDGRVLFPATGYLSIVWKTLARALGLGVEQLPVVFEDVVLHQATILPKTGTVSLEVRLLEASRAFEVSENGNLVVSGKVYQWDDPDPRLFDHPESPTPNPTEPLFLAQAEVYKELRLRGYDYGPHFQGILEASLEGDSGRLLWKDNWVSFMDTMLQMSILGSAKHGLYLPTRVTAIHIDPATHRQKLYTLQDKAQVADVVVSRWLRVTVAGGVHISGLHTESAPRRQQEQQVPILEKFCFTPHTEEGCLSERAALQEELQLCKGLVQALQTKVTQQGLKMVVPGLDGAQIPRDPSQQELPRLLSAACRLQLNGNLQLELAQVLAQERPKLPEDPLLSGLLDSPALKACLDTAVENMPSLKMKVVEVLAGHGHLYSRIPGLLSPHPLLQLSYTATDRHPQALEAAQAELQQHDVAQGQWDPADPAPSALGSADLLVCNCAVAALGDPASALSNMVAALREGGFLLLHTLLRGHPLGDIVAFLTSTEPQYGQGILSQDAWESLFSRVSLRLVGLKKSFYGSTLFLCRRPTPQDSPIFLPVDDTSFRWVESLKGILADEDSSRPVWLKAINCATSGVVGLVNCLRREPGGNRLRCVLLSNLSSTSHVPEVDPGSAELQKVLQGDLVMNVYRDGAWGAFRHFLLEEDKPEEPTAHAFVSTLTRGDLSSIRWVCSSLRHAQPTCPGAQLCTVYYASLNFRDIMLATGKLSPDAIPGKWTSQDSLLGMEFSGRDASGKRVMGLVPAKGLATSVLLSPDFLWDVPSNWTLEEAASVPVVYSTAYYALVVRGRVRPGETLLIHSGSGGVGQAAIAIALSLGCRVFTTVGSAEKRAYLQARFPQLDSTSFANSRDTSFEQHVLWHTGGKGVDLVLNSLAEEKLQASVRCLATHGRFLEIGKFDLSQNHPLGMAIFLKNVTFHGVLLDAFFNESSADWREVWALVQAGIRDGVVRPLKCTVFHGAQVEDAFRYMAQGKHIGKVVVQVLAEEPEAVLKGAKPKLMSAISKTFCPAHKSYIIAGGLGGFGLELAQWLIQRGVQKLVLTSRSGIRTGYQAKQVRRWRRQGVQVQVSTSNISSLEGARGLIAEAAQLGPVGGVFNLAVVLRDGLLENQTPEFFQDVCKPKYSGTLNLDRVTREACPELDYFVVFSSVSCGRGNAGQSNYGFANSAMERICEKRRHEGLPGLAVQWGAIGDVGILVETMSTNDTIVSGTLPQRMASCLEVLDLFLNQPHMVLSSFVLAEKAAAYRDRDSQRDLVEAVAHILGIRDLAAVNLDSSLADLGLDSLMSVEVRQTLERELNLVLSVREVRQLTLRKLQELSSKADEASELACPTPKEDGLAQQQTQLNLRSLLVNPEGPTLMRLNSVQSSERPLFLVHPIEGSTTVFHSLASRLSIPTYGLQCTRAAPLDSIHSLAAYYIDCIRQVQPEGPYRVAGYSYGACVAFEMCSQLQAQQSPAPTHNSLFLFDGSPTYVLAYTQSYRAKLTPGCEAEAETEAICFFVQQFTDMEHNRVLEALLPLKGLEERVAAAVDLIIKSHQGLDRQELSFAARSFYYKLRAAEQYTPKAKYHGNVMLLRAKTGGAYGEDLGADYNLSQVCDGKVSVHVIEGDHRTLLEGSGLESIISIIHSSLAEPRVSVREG

Fatty acid synthase [16] = target: T3, Fatty acid synthase; experiment: FAS thioesterase domain inhibitors, dose response, biochemical, endpoint fluorescence intensity, uHTS hits (AID 624327); type: functional;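 note: fluorescence from hydrolysis of an O-methyl fluorescein acyl ester substrate by the enzyme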
Genome polyprotein = Genome polyprotein (dengue virus type 2, UniProt P29990); experiment: Dengue-2 NS5 methyltransferase inhibitors, primary screen, biochemical, confirmation dose response (AID 588689); type: functional
[17] = target: Mitochondrial peptide methionine sulfoxide reductase (Bos taurus, UniProt P54149); type: functional;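 note: absorbance read-out, biochemical high-throughput dose-response screen for MsrA inhibitors, confirmatory; recombinant bovine MsrA coupled to E. coli TrxB with NADPH and selenocystamine; potency is for inhibitors of MsrA activity on DMSO substrate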
Mitochondrial peptide methionine sulfoxide reductase, sequence (P54149 whole entry): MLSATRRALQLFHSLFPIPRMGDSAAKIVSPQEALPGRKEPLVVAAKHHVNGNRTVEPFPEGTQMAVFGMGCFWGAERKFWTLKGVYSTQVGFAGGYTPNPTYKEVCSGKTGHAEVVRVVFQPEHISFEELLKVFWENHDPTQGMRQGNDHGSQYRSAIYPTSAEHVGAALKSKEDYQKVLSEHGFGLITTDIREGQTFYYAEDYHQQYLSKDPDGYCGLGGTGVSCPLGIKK

[18] = target: T4, Rac GTPase-activating protein 1 (Homo sapiens, UniProt Q9H0H5); experiment: MgcRacGAP GTPase-activating activity inhibitors, confirmation, biochemical, ADP Hunter fluorescence, primary and confirmatory (AID 624330); type: functional
T4 sequence (Q9H0H5 whole entry): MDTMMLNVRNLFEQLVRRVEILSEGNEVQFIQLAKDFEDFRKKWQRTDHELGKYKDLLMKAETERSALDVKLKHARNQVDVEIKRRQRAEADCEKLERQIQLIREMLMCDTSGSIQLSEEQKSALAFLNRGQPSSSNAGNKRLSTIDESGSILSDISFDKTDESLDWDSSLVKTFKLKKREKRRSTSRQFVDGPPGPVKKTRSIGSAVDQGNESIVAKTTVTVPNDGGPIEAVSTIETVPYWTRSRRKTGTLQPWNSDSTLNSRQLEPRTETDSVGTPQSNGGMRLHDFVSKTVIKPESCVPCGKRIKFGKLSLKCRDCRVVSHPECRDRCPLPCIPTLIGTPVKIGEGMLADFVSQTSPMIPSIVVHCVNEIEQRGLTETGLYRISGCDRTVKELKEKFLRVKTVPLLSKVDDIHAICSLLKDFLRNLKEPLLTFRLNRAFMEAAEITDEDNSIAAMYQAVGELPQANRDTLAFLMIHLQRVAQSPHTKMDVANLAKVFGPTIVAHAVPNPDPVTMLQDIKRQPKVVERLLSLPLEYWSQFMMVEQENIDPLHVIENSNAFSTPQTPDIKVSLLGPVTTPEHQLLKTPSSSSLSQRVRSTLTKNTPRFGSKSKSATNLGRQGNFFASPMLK

[19] = target: T5, Sentrin-specific protease 1 (Homo sapiens, UniProt Q9P0U3); experiment: Dose response confirmation of small molecule inhibitors of the catalytic domain of the SUMO protease, SENP1 in a FRET assay.; type: functional; details: read-out: IC50_Mean
T5 sequence (Q9P0U3 whole entry, the tested form may be a part): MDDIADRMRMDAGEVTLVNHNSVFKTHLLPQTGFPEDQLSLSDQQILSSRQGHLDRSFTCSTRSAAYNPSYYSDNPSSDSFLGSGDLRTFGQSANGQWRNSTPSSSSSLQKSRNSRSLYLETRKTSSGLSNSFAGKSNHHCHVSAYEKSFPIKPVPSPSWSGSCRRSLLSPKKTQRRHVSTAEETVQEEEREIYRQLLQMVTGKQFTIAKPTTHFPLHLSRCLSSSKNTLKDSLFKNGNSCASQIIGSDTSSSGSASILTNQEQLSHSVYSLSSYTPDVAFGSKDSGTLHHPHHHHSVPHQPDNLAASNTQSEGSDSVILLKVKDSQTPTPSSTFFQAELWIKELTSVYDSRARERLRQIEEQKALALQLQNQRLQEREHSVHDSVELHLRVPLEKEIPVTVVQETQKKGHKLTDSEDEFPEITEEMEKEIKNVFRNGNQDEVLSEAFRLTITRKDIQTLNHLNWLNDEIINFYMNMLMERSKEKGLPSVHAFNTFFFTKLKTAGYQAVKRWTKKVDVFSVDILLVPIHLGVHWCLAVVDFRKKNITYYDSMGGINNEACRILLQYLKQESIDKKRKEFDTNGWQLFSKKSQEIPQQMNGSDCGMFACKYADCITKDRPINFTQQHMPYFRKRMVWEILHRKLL

[20] = target: T6, Corticotropin-releasing factor receptor 2/Corticotropin-releasing factor-binding protein (Homo sapiens, UniProt P24387+Q13324); experiment: Dose Response confirmation of uHTS hits for small molecule antagonists of the CRF-binding protein and CRF-R2 receptor complex.; type: functional; details: read-out: IC50_Mean
T6 sequence (Q13324 whole entry): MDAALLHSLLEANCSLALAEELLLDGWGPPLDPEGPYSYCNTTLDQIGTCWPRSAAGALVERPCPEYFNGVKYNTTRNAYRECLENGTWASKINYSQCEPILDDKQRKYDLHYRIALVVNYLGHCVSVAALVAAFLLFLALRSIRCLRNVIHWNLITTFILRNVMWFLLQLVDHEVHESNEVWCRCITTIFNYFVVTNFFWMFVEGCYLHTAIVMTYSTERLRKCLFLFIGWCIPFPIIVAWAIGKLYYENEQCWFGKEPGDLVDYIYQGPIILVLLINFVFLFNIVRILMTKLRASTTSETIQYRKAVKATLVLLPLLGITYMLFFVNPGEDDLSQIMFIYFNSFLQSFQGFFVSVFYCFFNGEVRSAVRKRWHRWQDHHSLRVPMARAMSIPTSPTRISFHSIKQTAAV
T6 sequence (P24387 whole entry): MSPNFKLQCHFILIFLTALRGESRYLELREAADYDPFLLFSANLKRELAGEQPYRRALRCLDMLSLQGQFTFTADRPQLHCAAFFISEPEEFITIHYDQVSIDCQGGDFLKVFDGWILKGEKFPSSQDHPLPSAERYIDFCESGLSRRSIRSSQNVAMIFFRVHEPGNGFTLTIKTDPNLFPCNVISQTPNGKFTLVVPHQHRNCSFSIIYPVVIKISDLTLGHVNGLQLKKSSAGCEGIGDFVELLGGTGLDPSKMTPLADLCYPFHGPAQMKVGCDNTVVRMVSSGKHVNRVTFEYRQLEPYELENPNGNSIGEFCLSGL

[21] = target: T5, Sentrin-specific protease 1; experiment: potency of human SENP1 inhibitors, dose response, biochemical, kinetic FRET (AID 651697); type: functional; details: read-out: IC50_Mean
[22] = target: T6, Corticotropin-releasing factor receptor 2/Corticotropin-releasing factor-binding protein; experiment: activators of CRF receptor 2 with binding protein – uHTS hits, confirmation (AID 602473); type: functional; details: read-out: EC50_Mean
[23] = target: Hepatocyte nuclear factor 4-alpha (Homo sapiens, UniProt P41235); type: functional, cell-based;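 note: biochemical luminescence-based dose-response counterscreen measuring inhibition of HNF4 dimerization, run alongside a screen for blockers of ABHD5–perilipin-5 interaction; split luciferase complementation of HNF4 fusion proteins in cell lysate measuring dimerization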
[24] = T. cruzi growth inhibition in host cells, dose response, cell-based, plate reader, dry powder, set 2 (AID 652275); type: functional
[25] = T. cruzi intracellular amastigote growth inhibition, dose response, imaging, CA-I/72 strain, bovine embryo skeletal muscle, dry powder (AID 651885); type: functional, cell-based
Protein Wnt-3a = Protein Wnt-3a (Mus musculus, UniProt P27467); experiment: SAR analysis of small molecule antagonists of Gli-SUFU in a Wnt3a luminescent reporter assay.; type: functional

NNC(=O)c1[nH]cnc1C(=O)Nc1ccccn1
IC50 (Albumin): > 94.2 µM (inactive)

O=C(NC1(Cc2ccccc2)CCN(Cc2ccc(-c3ccccc3)cc2)C1=O)c1ccccc1 (stereo unspecified)
AC50 [1]: > 52 µM (inactive) | AC50 [2]: 10.1 µM (active) | AC50 [3]: 5.14 µM (active) | AC50 [4]: > 52 µM (inactive)

Cc1ccc(-c2nc(NCCN(C)C)c3ccccc3n2)cc1
AC50 [5]: 8.93 µM (active) | EC50 [6]: > 91.2 µM (inactive) | AC50 [7]: 12.6 µM (active) | EC50 [8]: 37.1 µM (inactive)

COC(=O)c1ccc(Oc2coc3cc(OCc4cnn(-c5ccccc5)c4)ccc3c2=O)cc1
AC50 (Cytochrome P450 2C19): 0.708 µM (inconclusive) | AC50 [9]: 38.3 µM (active) | AC50 (Cytochrome P450 3A4): inconclusive

CCOCCCNc1nc(-c2ccccc2)nc2ccccc12
IC50 [10]: 12.3 µM (active) | IC50 [11]: 21.1 µM (inactive)

Cc1ccc(OCc2cc(C(=O)N3CCCC(O)C3)no2)cn1 (stereo unspecified)
AC50 [12]: 61 µM (active)

CCn1cc(Br)c(C(=O)Nc2ccccc2C(=O)OC)n1
IC50 (Steroidogenic factor 1): 10.5 µM (inactive) | IC50 [13]: 35.9 µM (inactive) | IC50 [14]: 35.9 µM (inactive)

CSc1nc(N)c(N=Nc2ccc([As](=O)(O)O)cc2)c(O)n1
IC50 (Fatty acid synthase [15]): 4.99 µM (active) | IC50 (Fatty acid synthase [16]): 11.4 µM (active) | IC50 (Genome polyprotein): 57.3 µM (active) | IC50 [17]: 9.91 µM (active) | IC50 [18]: 39.9 µM (active)

C=CCNC(=O)c1cccc2c1C(=O)c1ccc(N3CCOCC3)cc1S2(=O)=O
IC50 [19]: 13.2 µM (active) | IC50 [20]: > 47.1 µM (inactive) | IC50 [21]: 13.9 µM (active) | EC50 [22]: > 53 µM (inactive)

CC(c1nc2ccccc2[nH]1)n1c(=O)c(-c2ccco2)nc2ccccc21 (stereo unspecified)
IC50 [23]: 2.93 µM (active)

Cc1cc(C(=O)Nc2cccc3c2O[C@@H](CN(C)Cc2ccc(Oc4ccccc4)cc2)[C@H](C)CN([C@@H](C)CO)C3=O)n(C)n1
AC50 [24]: 1.28 µM (active) | IC50 [25]: > 20 µM (inactive)

O=C(Nc1cc(N2CCCCC2)ncn1)c1ccc2ccccc2c1
IC50 (Protein Wnt-3a): > 21.8 µM (inactive)

Source: ChEMBL document CHEMBL1201862, “PubChem BioAssay data set” (2004)
